The values that follow come from patent US20040175401A1, “Enhanced parmacokinetic profile of hydrophobic substances” (priority 2001, published 2004).

Read-outs that look alike come from different tables or passages of the source.

The nature of series [1]: n-octanol/water partition coefficient LogPoct calculated from solubility data. As to conditions: calculated as logPoct = (0.99 - logSw)/1.34. The source says:
where logSw is the molar solubility and logPoct is the water-oil partition coefficient. Using this equation, values for logPoct can be calculated from solubility data.

For series [2] the following is noted: molar aqueous solubility, log value; cited from earlier work.
For series [3] the following is noted: for AUC(0-∞) / Cmax / T1/2 / Tmax: mean, n = 6. As to the method:
Six Yucatan mini-pigs weighing 20-25 kg were used. […] A total of 6 animals were utilized in a full crossover design where each animal received a 1.0 mg dose by all administration routes in an injection volume of 0.1 mL.
The intravenous dose was administered an ear vein catheter. Subcutaneous delivery was through a standard 0.5 inch, 30 gauge needle. Delivery to the dermis was through a three point microneedle array having three 34 gauge needles with 7 mm spacing and 1 mm depth to right flank of the animal between the rib cage and the rear leg. Subcutaneous and intravenous administration was by manual injection seconds. Administration to the dermis was at a rate of 90 μL/min by a syringe pump.
The study design was a full crossover with each animal receiving intravenous, subcutaneous and dermal administration. Each animal received three treatments over a two-week period with a minimal washout period of 2 days between subsequent doses. Dosing was according to the schedule shown below in Table 2.
Blood samples were obtained from the vena cava access port immediately before dosing and at 5, 10, 15, 20, 30, 45, 60 minutes and 2, 3, 4, 6, 8, 10, 14 and 24 hours after administration. Timing was started at the cessation of injection for a given method. The venous samples were collected into EDTA containing Vacutainer tubes, centrifuged at approximately 1000 g for 10 minutes at 4° C. After centrifugation, the plasma layer was transferred to plastic storage vials and stored frozen at −70° C. until assayed.
Assay of the pig plasma samples was performed by HPLC analysis. Results are shown below in Tables 3
Pharmacokinetic parameters were estimated using Watson Drug Metabolism Laboratory Information Management System, version 6.2.0.02 (Innaphase Corp., Philadelphia, Pa.). Parameters determined were the maximal plasma concentration, Cmax, time to maximal plasma concentration Tmax, area under the curve estimated to t=infinity, Tmax and the half-life for decrease in plasma concentration, T1/2.

In the case of `C=C(C)C1CC=C(C)C(=O)C1` (stereo not drawn) [Carvone], the LogPoct in series [1] is 1.99. Moreover, the LogSw in series [2] was −1.67 moles/L.

On to `CC(C)=CCC1(C(C)(C)C)C(=O)NC(=O)NC1=O` [5-tBu-5-(3-methylbut-2-enyl)-barbituric acid], for which the LogPoct in series [1] is given as 3.39.

For `CC(=O)/C=C/C1C(C)=CCCC1(C)C` (stereo not drawn) [a-ionone], the LogSw in series [2] is listed as −3.06 moles/L.

Regarding `S=c1cc(-c2ccccc2)ss1` [5-phenyldithiolethione], the LogPoct in series [1] is reported as 4.95. The LogSw in series [2] is reported as −5.64 moles/L.

For the molecule `O=C1NC(=O)C2(CCC2)C(=O)N1` [5,5-(CH2)3-barbituricacid], in series [1], the LogPoct is given as 1.98.

On to `CC(=O)Nc1nc2c(ncn2COCCOC(C)=O)c(=O)[nH]1` [N2,O-diacetylacyclovir], for which, in series [1], the LogPoct is on record as 2.75. For the same molecule, the LogSw in series [2] is −2.70 moles/L.

Turning to `C=CCC1(C(C)C)C(=O)NC(=O)NC1=O` [5-iPr-5-allyl-barbituric acid], the LogSw in series [2] was −1.71 moles/L.

Consider `CC(C)CN(C[C@@H](O)[C@H](Cc1ccccc1)NC(=O)O[C@H]1CCOC1)S(=O)(=O)c1ccc(N)cc1` [Amprenavir], for which the LogPoct in series [1] is on record as 3.72. The LogSw in series [2] is recorded as −4.00 moles/L.

Consider `O=C1NC(=O)C2(CCCC2)C(=O)N1` [5,5-(CH2)4-barbituric acid], for which the LogPoct in series [1] is listed as 3.97.

Turning to dimethylthiolethione, the LogPoct in series [1] is listed as 3.29. Moreover, the LogSw in series [2] was −3.42 moles/L.

For the molecule `COc1ccc(-c2cc(=S)ss2)cc1` [Anethole trithione], the LogPoct in series [1] is given as 5.07.

As to `O=c1[nH]cnc2c1ncn2[C@H]1CC[C@@H](CO)O1` [Didanosine], the LogSw in series [2] is on record as −0.90 moles/L.

Regarding `CC1(c2ccccc2)C(=O)NC(=O)NC1=O` [5-Me-5-phenylbarbituric acid], the LogPoct in series [1] is reported as 2.51. Further, the LogSw in series [2] is given as −2.38 moles/L.

As for `CCCCC(=O)OCN1C(=O)NC(c2ccccc2)(c2ccccc2)C1=O` [3-pentanoyloxymethyl-5,5-diphenylhydantoin], the LogSw in series [2] was −4.68 moles/L.

Turning to `O=C1NC(=O)C2(CCCCC2)C(=O)N1` [5,5-(CH2)5-barbituric acid], in series [1], the LogPoct is 3.02.

For `C=CCC1(CC)C(=O)NC(=O)NC1=O` [5-Et-5-allyl-barbituric acid], the LogPoct in series [1] is reported as 1.64. Besides, the LogSw in series [2] was −1.61 moles/L.

`C=CCC1(C)C(=O)NC(=O)NC1=O` [5-Me-5-allylbartituric acid]: the LogPoct in series [1] is 1.60.

On to `O=C1NC(=O)C2(CCCCCCCCCC2)C(=O)N1` [5,5-(CH2)10-barbituric acid], for which, in series [1], the LogPoct is given as 4.16. In addition, the LogSw in series [2] is given as −4.59 moles/L.

A word on the Cmax: it is the peak of the concentration-time curve. As usually defined, the Tmax is the time at which the peak concentration occurs. On to `CN[C@@H]1Cc2cccc3[nH]c(=S)n(c23)C1` [(R)-5,6-dihydro-5-(methylamino)-4H-imidazo[4,5-ij]-quinoline-2(1H)-thione], for which the “Plasma Concentration, Mean” value in series [3] (ID (dermis), 1.0 mg dose, 5 min) came to 24.8 ng/mL; in series [3] (ID (dermis), 1.0 mg dose, 10 min) it was 22.5 ng/mL; in series [3] (ID (dermis), 1.0 mg dose, 15 min) it was 16.4 ng/mL; in series [3] (ID (dermis), 1.0 mg dose, 20 min) it was 18.0 ng/mL; in series [3] (ID (dermis), 1.0 mg dose, 30 min) it was 14.0 ng/mL; in series [3] (ID (dermis), 1.0 mg dose, 45 min) it was 9.9 ng/mL. Further, the “Plasma Concentration, Mean” value in series [3] (ID (dermis), 1.0 mg dose, 1 hr) is 9.0 ng/mL; in series [3] (ID (dermis), 1.0 mg dose, 2 hr) it was 5.7 ng/mL; in series [3] (ID (dermis), 1.0 mg dose, 3 hr) it was 4.2 ng/mL; in series [3] (ID (dermis), 1.0 mg dose, 4 hr), 3.6 ng/mL; in series [3] (ID (dermis), 1.0 mg dose, 6 hr), 0.4 ng/mL; in series [3] (ID (dermis), 1.0 mg dose, 8 hr), 0 ng/mL. For the same molecule, the “Plasma Concentration, Mean” value in series [3] (ID (dermis), 1.0 mg dose, 10 hr) is reported as 0 ng/mL; in series [3] (ID (dermis), 1.0 mg dose, 14 hr) it was 0 ng/mL; in series [3] (ID (dermis), 1.0 mg dose, 24 hr) it was 0 ng/mL; in series [3] (IV, 1.0 mg dose, 5 min), 29.8 ng/mL; in series [3] (IV, 1.0 mg dose, 10 min) it was 20.5 ng/mL; in series [3] (IV, 1.0 mg dose, 15 min), 18.5 ng/mL. In addition, the “Plasma Concentration, Mean” value in series [3] (IV, 1.0 mg dose, 20 min) was determined as 15.3 ng/mL; in series [3] (IV, 1.0 mg dose, 30 min), 13.1 ng/mL; in series [3] (IV, 1.0 mg dose, 45 min) it was 10.7 ng/mL; in series [3] (IV, 1.0 mg dose, 1 hr) it was 9.1 ng/mL; in series [3] (IV, 1.0 mg dose, 2 hr), 6.7 ng/mL; in series [3] (IV, 1.0 mg dose, 3 hr), 2.8 ng/mL. In addition, the “Plasma Concentration, Mean” value turned out to be 1.6 ng/mL in series [3] (IV, 1.0 mg dose, 4 hr); 2.6 ng/mL in series [3] (IV, 1.0 mg dose, 6 hr); 0 ng/mL in series [3] (IV, 1.0 mg dose, 8 hr); 0 ng/mL in series [3] (IV, 1.0 mg dose, 10 hr); 0 ng/mL in series [3] (IV, 1.0 mg dose, 14 hr); 0 ng/mL in series [3] (IV, 1.0 mg dose, 24 hr). Further, the “Plasma Concentration, Mean” value in series [3] (SC, 1.0 mg dose, 5 min) is recorded as 10.0 ng/mL; in series [3] (SC, 1.0 mg dose, 10 min) it was 15.3 ng/mL; in series [3] (SC, 1.0 mg dose, 15 min) it was 16.0 ng/mL; in series [3] (SC, 1.0 mg dose, 20 min), 14.5 ng/mL; in series [3] (SC, 1.0 mg dose, 30 min), 14.0 ng/mL; in series [3] (SC, 1.0 mg dose, 45 min) it was 9.9 ng/mL. The “Plasma Concentration, Mean” value in series [3] (SC, 1.0 mg dose, 1 hr) was 8.9 ng/mL; in series [3] (SC, 1.0 mg dose, 2 hr), 5.6 ng/mL; in series [3] (SC, 1.0 mg dose, 3 hr), 4.1 ng/mL; in series [3] (SC, 1.0 mg dose, 4 hr), 2.2 ng/mL; in series [3] (SC, 1.0 mg dose, 6 hr), 1.6 ng/mL; in series [3] (SC, 1.0 mg dose, 8 hr) it was 0.6 ng/mL. Also, the “Plasma Concentration, Mean” value in series [3] (SC, 1.0 mg dose, 10 hr) was found to be 0 ng/mL; in series [3] (SC, 1.0 mg dose, 14 hr), 0 ng/mL; in series [3] (SC, 1.0 mg dose, 24 hr), 0 ng/mL. In addition, the “AUC(0-∞)” value turned out to be 33.6 ng·h/mL in series [3] (ID (dermis), 1.0 mg dose); 32.4 ng·h/mL in series [3] (IV, 1.0 mg dose); 32.1 ng·h/mL in series [3] (SC, 1.0 mg dose). The Cmax in series [3] (ID (dermis), 1.0 mg dose) was 26.7 ng/mL; in series [3] (IV, 1.0 mg dose), 29.8 ng/mL; in series [3] (SC, 1.0 mg dose) it was 16.9 ng/mL. For the same molecule, the T1/2 in series [3] (ID (dermis), 1.0 mg dose) turned out to be 1.61 h; in series [3] (IV, 1.0 mg dose), 1.45 h; in series [3] (SC, 1.0 mg dose) it was 1.5 h. The Tmax in series [3] (ID (dermis), 1.0 mg dose) was found to be 8.34 min; in series [3] (IV, 1.0 mg dose), 4.98 min; in series [3] (SC, 1.0 mg dose) it was 13.3 min. Also, the “Heterogeneity of Regression analysis of plasma values, dermis versus intravenous administration” value in series [3] (ID versus IV, both different from SC) is “not different from each other”. In addition, the “Cmax values following administration to the dermis compared with subcutaneous administration” value in series [3] (ID versus SC, 1.0 mg dose) is given as “consistently greater”. For the same molecule, the “Plasma levels of drug after administration into the dermis compared with subcutaneous administration” value in series [3] (ID versus SC, 1.0 mg dose) is recorded as “higher plasma levels”. Further, in series [3] (ID versus SC, 1.0 mg dose), the “Tmax values following administration to the dermis compared with subcutaneous administration” value is “consistently lesser”.

For the molecule `CCC1(CC=C(C)C)C(=O)NC(=O)NC1=O` [5-Et-5-(3-methylbut-2-enyl)-barbituric acid], the LogPoct in series [1] is 2.42.

In the case of `C=C(C)[C@H]1CC=C(C)CC1` [limonene], in series [2], the LogSw is −3.41 moles/L.

`CC(=O)Nc1nc2c(ncn2COCCO)c(=O)[nH]1` [N2-acetylacyclovir]: in series [1], the LogPoct was 2.17.

For `O=C1NC(=O)C(c2ccccc2)(c2ccccc2)C(=O)N1` [5,5-diphenylbarbituric acid], in series [1], the LogPoct is given as 3.87.

`O=C1NC(=O)C2(CC2)C(=O)N1` [5,5-(CH2)2-barbituric acid]: the LogPoct in series [1] is reported as 2.15.

Turning to `S=c1ccss1` [dithiolethione], the LogPoct in series [1] is given as 2.59.

For the molecule `CCC1(CC)C(=O)NC(=S)NC1=O` [5-diethyl-2-thiobarbituric acid], in series [1], the LogPoct is on record as 2.36.

Take `CC(C)C1(C(C)C)C(=O)NC(=O)NC1=O` [5,5-di-iPr-barbituric acid]: the LogPoct in series [1] is 2.81.

On to `O=C1NC(=O)C2(CCCCCCC2)C(=O)N1` [5,5-(CH2)7-barbituric acid], for which the LogPoct in series [1] is recorded as 2.96.
